Literature values, collected in patent publication US9889183B2, “PKC activators and anticoagulant in regimen for treating stroke” (BLANCHETTE ROCKEFELLER NEUROSCIENCES INSTITUTE, priority 2010, dated 2018).

Target: T1, PKCε (Homo sapiens, UniProt Q02156)
T1 construct: purchased Calbiochem
T1 sequence (Q02156 1-737): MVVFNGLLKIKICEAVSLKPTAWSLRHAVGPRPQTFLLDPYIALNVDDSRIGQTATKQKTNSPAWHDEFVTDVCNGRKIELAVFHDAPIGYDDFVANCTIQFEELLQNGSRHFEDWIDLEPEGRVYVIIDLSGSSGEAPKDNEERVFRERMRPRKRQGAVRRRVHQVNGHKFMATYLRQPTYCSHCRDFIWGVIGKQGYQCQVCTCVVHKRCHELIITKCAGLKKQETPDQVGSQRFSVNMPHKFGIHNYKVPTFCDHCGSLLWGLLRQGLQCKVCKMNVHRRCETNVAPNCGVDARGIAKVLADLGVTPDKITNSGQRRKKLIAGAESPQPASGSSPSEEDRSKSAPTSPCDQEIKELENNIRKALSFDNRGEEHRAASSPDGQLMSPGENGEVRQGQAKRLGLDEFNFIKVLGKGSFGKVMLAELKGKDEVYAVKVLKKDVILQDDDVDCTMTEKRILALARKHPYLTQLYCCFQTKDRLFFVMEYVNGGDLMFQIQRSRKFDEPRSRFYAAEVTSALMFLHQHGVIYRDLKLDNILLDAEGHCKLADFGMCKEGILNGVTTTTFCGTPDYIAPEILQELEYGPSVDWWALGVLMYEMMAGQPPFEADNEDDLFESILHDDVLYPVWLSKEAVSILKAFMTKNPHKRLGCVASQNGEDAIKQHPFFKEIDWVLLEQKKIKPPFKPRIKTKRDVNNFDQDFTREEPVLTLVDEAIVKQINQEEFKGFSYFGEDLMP
Conditions: cited from earlier work

For `CCCCCC1CC1CC1CC1CCCCCCCC(=O)O` (stereo not shown) [BR-101, 2-[(2-pentylcyclopropyl)methyl]cyclopropaneoctanoic acid], the “concentration of maximal effect, selective PKCε activation” value is given as 100 nM.
